Source: patent publication US10676467B2 (Washington University, priority 2017, dated 2020)
Several values for one entry are separate records, joined by “and”; a condition that tells them apart may be missing. Equal entries are not always repeated. Entries after “also recorded” stand apart in the source; their conditions may differ. Where two headings read alike, the source gives them in different places.

Columns and labels:
S1P2-S1P5 = test: [32P]S1P competitive binding assay, other subtypes reported together; parameters: species or system human; settings: one bound for all four subtypes
Protocol: (§1) Competitive binding was performed for 60 min at room temperature and terminated by collecting the membranes onto 96-well glass fiber (GF/B) filtration plates (Millipore, Billerica, Mass.). Each filter was washed with 200 μL of assay buffer for five times. The filter bound radionuclide was measured by a Beckman LS3801 scintillation counter using Cherenkov counting. The reported IC50 values were calculated using the 4 parameter equation, least-square non-linear regression curve-fit, with GraphPad Prism software (GraphPad Software, Inc). Each assay was repeated at least three times with duplicate wells for each compound; the reported values (mean±SD, nM) are calculated from the average of all assays.

S1P3 = S1P3 (Homo sapiens (Human), UniProt Q99500); test: [32P]S1P competitive binding assay on cell membranes; settings: competition against [32P]S1P, mean ± SD
Protocol: as §1

S1P4 = S1P4 (Homo sapiens (Human), UniProt O95977); test: as above
Protocol: as §1

S1P5 = S1P5 (Homo sapiens (Human), UniProt Q9H228); test: as above
Protocol: as §1

S1P2 = S1P2 (Homo sapiens (Human), UniProt O95136); test: as above; settings: competition against [32P]S1P, mean ± SD
Protocol: as §1

[1] = Nonhuman primate (NHP) brain microPET scan; type: in vivo, macaques; settings: normal NHP
Protocol: To examine if newly-synthesized S1P1 radioligands could cross the BBB of NHPs, two male macaques (9-10 kg) were studied with a microPET Focus 220 scanner (Concorde/CTI/Siemens Microsystems, Knoxville, Tenn.). The welfare of the animals conformed to the requirements of National Institutes of Health (NIH). This work was conducted at the Nonhuman Primate Facility of Washington University in St. Louis with approval from the IACUC. Animals were maintained in facilities with 12-hour dark and light cycles, given access to food and water ad libitum and provided a variety of psychologically enriching tasks to prevent inappropriate deprivation. Animals were scanned under anesthesia (induced with ketamine and glycopyrrolate and maintained with inhalation isoflurane). Core temperature was kept about 37° C. with a heated water blanket. The head was secured in a head holder with the brain in the center of the field of view.
PET scans were collected from O-120 min with the following time frames: 3×1 min, 4×2 min, 3×3 min and 20×5 min. Emission data were corrected for dead time, scatter and attenuation and then reconstructed to a final resolution of 2.0 mm full-width half maximum in all 3 dimensions at the center of the field of view. PET and MRI images were co-registered using automated image registration program (AIR). For quantitative analyses, three-dimensional ROI (the global brain) was identified on the MRI and transformed to the reconstructed PET images to obtain time-activity curves. Activity measures were standardized to body weight and the dose of radioactivity injected to yield standardized uptake value (SUV).

S1P1 = S1P1 (Rattus norvegicus (Rat), UniProt P48303); test: MicroPET and tracer kinetic modeling in EAE rat model, lumbar spinal cord; type: in vivo; settings: for 2TCM Vd / LoganAIF Vd: lumbar spinal cord, n = 3-4
recombinant human S1P1 = recombinant human S1P1 (Homo sapiens (Human), UniProt P21453); test: [32P]S1P competitive binding assay on cell membranes
Protocol: as §1

[2] = competition against [32P]S1P, membranes with recombinant human S1P1, mean ± SD, read-out: S1P1 IC50 ± SD
[3] = competition against [32P]S1P, mean ± SD

Chain of recombinant human S1P1 (P21453 whole entry): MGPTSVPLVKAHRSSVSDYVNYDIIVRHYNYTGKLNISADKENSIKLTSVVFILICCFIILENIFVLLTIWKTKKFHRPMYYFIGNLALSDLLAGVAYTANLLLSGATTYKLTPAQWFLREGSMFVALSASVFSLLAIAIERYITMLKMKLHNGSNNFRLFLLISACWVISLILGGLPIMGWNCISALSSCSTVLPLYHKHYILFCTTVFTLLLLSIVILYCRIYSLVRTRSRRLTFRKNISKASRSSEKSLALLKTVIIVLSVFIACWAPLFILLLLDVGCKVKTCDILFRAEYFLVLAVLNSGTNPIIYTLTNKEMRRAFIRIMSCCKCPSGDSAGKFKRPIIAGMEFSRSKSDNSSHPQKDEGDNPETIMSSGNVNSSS
Chain of S1P3 (Q99500 whole entry): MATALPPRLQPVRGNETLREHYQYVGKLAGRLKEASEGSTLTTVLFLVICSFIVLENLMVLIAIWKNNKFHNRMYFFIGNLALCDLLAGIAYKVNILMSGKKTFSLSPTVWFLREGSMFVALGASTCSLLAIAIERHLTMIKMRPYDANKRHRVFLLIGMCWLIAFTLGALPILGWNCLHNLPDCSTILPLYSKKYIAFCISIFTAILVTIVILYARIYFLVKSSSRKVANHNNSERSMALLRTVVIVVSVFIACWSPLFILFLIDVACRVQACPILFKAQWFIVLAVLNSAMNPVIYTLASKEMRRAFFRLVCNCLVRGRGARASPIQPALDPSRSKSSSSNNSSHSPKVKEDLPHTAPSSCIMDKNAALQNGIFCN
Chain of S1P5 (Q9H228 whole entry): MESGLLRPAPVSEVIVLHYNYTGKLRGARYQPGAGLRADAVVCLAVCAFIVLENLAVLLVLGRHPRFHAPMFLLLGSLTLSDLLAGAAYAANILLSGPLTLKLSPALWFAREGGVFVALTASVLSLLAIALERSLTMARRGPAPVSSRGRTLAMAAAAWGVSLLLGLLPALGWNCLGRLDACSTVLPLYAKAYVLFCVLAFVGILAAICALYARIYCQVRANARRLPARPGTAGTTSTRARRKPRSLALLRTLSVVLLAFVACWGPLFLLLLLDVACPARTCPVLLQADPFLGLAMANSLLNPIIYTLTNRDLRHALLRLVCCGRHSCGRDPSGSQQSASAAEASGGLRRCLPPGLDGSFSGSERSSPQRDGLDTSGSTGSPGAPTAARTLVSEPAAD
Chain of S1P1 (P48303 whole entry): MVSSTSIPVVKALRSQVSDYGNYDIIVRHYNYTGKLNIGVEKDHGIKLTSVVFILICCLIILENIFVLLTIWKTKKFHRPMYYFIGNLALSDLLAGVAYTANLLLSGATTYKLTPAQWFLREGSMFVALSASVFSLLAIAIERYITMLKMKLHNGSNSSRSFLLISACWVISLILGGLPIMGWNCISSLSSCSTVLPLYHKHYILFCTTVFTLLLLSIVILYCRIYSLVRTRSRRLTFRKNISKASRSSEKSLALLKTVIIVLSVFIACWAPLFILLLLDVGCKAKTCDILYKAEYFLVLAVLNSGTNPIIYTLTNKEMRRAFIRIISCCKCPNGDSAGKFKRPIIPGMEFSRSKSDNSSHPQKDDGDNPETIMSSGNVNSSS
Chain of S1P2 (O95136 whole entry): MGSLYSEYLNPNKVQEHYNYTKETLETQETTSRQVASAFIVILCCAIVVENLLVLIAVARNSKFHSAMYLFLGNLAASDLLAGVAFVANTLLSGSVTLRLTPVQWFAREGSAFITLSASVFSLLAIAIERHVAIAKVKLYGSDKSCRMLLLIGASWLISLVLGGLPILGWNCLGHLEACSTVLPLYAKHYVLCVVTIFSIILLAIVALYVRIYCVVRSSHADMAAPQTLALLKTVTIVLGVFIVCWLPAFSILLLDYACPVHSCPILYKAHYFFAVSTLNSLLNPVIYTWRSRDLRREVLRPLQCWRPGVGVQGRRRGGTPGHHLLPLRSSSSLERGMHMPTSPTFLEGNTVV
Chain of S1P4 (O95977 whole entry): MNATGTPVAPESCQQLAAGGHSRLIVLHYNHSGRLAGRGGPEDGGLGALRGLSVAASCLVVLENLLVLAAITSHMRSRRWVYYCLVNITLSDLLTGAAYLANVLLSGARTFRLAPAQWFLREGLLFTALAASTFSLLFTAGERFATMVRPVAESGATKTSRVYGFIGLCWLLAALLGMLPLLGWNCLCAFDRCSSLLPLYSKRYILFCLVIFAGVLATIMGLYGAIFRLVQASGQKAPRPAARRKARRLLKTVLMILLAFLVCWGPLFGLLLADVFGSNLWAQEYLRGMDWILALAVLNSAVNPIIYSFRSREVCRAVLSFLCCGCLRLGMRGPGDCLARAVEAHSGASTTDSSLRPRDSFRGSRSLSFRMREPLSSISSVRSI

Row | Compound | IC50 (S1P2-S1P5) | IC50 (S1P3) | IC50 (S1P4) | IC50 (S1P5) | IC50 (S1P2) | IC50 (recombinant human S1P1; [2]) | IC50 (recombinant human S1P1; read-out: S1P1 IC50 ± SD) | also measured
1 | OCc1ccc(-c2noc(-c3ccc(OCCF)c(C(F)(F)F)c3)n2)cc1 [Compound 8c, (4-(5-(4-(2-Fluoroethoxy)-3-(trifluoromethyl)phenyl)-1,2,4-oxadiazol-3-yl)phenyl)methanol] | > 1 µM | > 1 µM | > 1 µM | > 1 µM | > 1 µM | – | – | –
2 | OCCOCCOCc1ccc(-c2noc(-c3ccc(OCC[18F])c(C(F)(F)F)c3)n2)cc1 [[^18F]12b] | – | – | – | – | – | – | – | Max SUV value in total brain ([1]; microPET): ~2.4 SUV; Blood-brain barrier crossing, NHP brain ([1]; microPET, listed as 18F-TZ4881): able to cross the blood brain barrier; also recorded: able to cross the BBB; Time to max SUV in total brain ([1]; post injection): ~5 min; Visualization of rat lumbar spinal cord by microPET (S1P1; EAE and sham rats): clear visualization of lumbar spinal cord; 2TCM Vd (S1P1; EAE rats): 2.30 ± 0.13 mL/g; LoganAIF Vd (S1P1; EAE rats): 2.27 ± 0.18 mL/g; Tracer uptake in lumbar spinal cord, EAE (S1P1; EAE rats, summed SUV values 10-60 min post injection, n=3-4): 1.20±0.04 SUV; 2TCM Vd (S1P1; Sham rats): 1.76 ± 0.19 mL/g; LoganAIF Vd (S1P1; Sham rats): 1.75 ± 0.21 mL/g; Increase of tracer uptake in EAE rat lumbar spinal cord compared with shams (S1P1; microPET, 10-60 min post injection): 22.9%; Averaged tracer uptake in sham rat spinal cord (S1P1; sham rats, 10-60 min post injection): 1.0-1.1; Tracer uptake in lumbar spinal cord, sham (S1P1; sham rats, summed SUV values 10-60 min post injection, n=3-4): 0.98±0.09 SUV
3 | OCc1cn(Cc2ccc(-c3noc(-c4ccc(OCCF)c(C(F)(F)F)c4)n3)cc2)nn1 [Compound 22b, (1-(4-(5-(4-(2-Fluoroethoxy)-3-(trifluoromethyl)phenyl)-1,2,4-oxadiazol-3-yl)benzyl)-1H-1,2,3-triazol-4-yl)met-hanol] | > 1 µM | > 1 µM | > 1 µM | > 1 µM | > 1 µM | 0.0097 ± 0.0016 µM | < 0.02 µM | IC50 (recombinant human S1P1; Table 9, avg, n = 2-3, read-out: S1P1 IC50, second value in parentheses (average) (converted)): 0.0098 µM; IC50 (recombinant human S1P1; competition against [32P]S1P, membranes with recombinant human S1P1, mean ± SD, listed as TZ43113, read-out: S1P1 IC50 ± SD): 0.0097 µM and 0.00965 µM; IC50 (recombinant human S1P1; competition against [32P]S1P, membranes with recombinant human S1P1, mean ± SD, listed as TZ-43-113, read-out: S1P1 IC50 ± SD): 0.00965 ± 0.00161 µM; Fold decreased S1P1 IC50 compared to 22a (recombinant human S1P1; vs corresponding acid 22a): 35 fold
4 | OCCOCCOCc1ccc(-c2noc(-c3ccc(OCCF)c(C(F)(F)F)c3)n2)cc1 [Compound 12b] | > 1 µM | > 1 µM | > 1 µM | > 1 µM | > 1 µM | 0.0154 ± 0.0033 µM | < 0.02 µM | Fold decrease of S1P1 binding potency compared to 8c (recombinant human S1P1; vs 8c): approximately 2 fold
5 | OCC(O)COCc1ccc(-c2noc(-c3ccc(OCCF)c(C(F)(F)F)c3)n2)cc1 (centres unmarked) [Compound 8h] | > 1 µM | > 1 µM | – | – | > 1 µM | – | – | Fold increase of S1P1 binding potency compared to 8g (recombinant human S1P1; vs 8g): 10 fold; IC50 (S1P4; [3]): > 1 µM; IC50 (S1P5; [3]): > 1 µM
6 | NNC(=O)c1ccc(-c2noc(-c3ccc(OCCF)c(C(F)(F)F)c3)n2)cc1 [Compound 20c, 4-(5-(4-(2-Fluoroethoxy)-3-(trifluoromethyl)phenyl)-1,2,4-oxadiazol-3-yl)benzohydrazide] | > 1 µM | > 1 µM | > 1 µM | > 1 µM | > 1 µM | – | < 0.02 µM | IC50 (recombinant human S1P1; competition against [32P]S1P, membranes with recombinant human S1P1, mean ± SD, listed as TZ-43-153, read-out: S1P1 IC50 ± SD): 0.0147 ± 0.00167 µM; Fold decreased S1P1 IC50 compared to 19b (recombinant human S1P1; vs 19b): 5 fold
7 | OCCOCc1ccc(-c2noc(-c3ccc(OCCF)c(C(F)(F)F)c3)n2)cc1 [Compound 12a] | > 1 µM | > 1 µM | > 1 µM | > 1 µM | > 1 µM | – | – | –
8 | NS(=O)(=O)c1ccc(-c2noc(-c3ccc(OCCF)c(C(F)(F)F)c3)n2)cc1 [Compound 19a] | > 1 µM | > 1 µM | > 1 µM | > 1 µM | > 1 µM | – | < 0.02 µM | IC50 (recombinant human S1P1; competition against [32P]S1P, membranes with recombinant human S1P1, mean ± SD, listed as TZ-43-73, read-out: S1P1 IC50 ± SD): 0.0132 ± 0.00323 µM
9 | 3-((4-(5-(4-(2-Fluoroethoxy)-3-(trifluoromethyl)phenyl)-1,2,4-oxadiazol-3-yl)benzypamino)propanoic acid [Compound 26b] | > 1 µM | > 1 µM | – | – | > 1 µM | 0.0063 ± 0.0013 µM | – | IC50 (S1P4; [3]): > 1 µM; IC50 (S1P5; [3]): > 1 µM
